Assay: gradient 5% acetonitrile 3 min, to 50% in 2 min, to 85% in 15 min, held 3 min, 100 µL/min
Settings: column: Zorbax Extend-C18 2.1 x 50 mm; eluents: water / acetonitrile, 0.1% formic acid
How it was run: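 Over 3 months, pure standards in mixtures of ~100 molecules were run by HPLC coupled to a quadrupole time-of-flight mass spectrometer in positive and negative ionization mode. The column was a Zorbax Extend-C18 (2.1 × 50 mm, 1.8 μm) at 100 μL/min, eluted with water and acetonitrile each holding 0.1% formic acid, with 40 μL dead and 900 μL dwell volumes. Retention time was determined from adduct peaks chosen by software and checked manually.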

Compound	RP-LC retention time [s]
O=C(c1ccc([N+](=O)[O-])o1)N1CCN(Cc2nnnn2-c2ccc(F)cc2)CC1	755
COc1ccc(OC)c(S(=O)(=O)N2CCCC(C)(C(=O)NCc3ccccc3)C2)c1 (stereo not given)	903
COc1cc(C(=O)N2CCN(c3cc(-c4cccs4)[nH]n3)CC2)cc(OC)c1OC	699
O=C(NCc1ccccn1)C1CCN(c2cnc(N3CCCC3)nc2)CC1	547
CCNC(=O)c1c2c(nc3ccccc13)CCC2	573
Cc1ccccc1CNC(=O)CC1CCN(C(=O)c2[nH]c(C)c(C(=O)OC(C)C)c2C)CC1	853
O=C(c1ccco1)N1CCCC1c1nc(C2CCOCC2)no1 (stereo not given)	673
O=C(NCC1CCCO1)C1CCN(S(=O)(=O)c2cc(-c3noc(C4CCC4)n3)cs2)CC1 (stereo not given)	858
Cc1oc(-c2ccc(C(=O)NCCCN3CCCC3)cc2)nc1COc1ccccc1	715
CCc1ccc(-c2noc(-c3nnn(Cc4nc(-c5ccccc5OC)oc4C)c3C)n2)cc1	1270
COc1cccc(C2Cn3nnc(-c4nc(-c5ccc(C)c(C)c5)no4)c3CO2)c1 (stereo not given)	1270
Cc1cc(OCC(=O)Nc2ccc3c(c2)OCO3)nc(N2CCN(c3ccccc3)CC2)n1	776
O=C(Nc1ccc2c(c1)OCO2)c1cn(-c2ccc(F)cc2)nn1	885
Cc1ccc(F)cc1NC(=O)c1sc(-c2cn(C)c3ncccc23)nc1C	983
COc1ccc(C(=O)N2CCN(c3ccc(=O)n(-c4ccc(C(C)C)cc4)n3)CC2)cc1OC	867
NS(=O)(=O)c1ccc(NC(=O)Nc2ccc(F)cc2)cc1	772
COC(=O)c1cnc2nc(C)ccc2c1Nc1cccc(Cl)c1	705
Cc1nncn1C1CN(C(=O)c2ccc(OC(F)(F)F)cc2)C1	654
COc1ccccc1-c1cc(C(F)(F)F)n2ncc(C(=O)OCCN3CCCC3=O)c2n1	894
O=C(Cn1c(CN2CCCCCC2)nc2ccccc21)N1CCOCC1	596
CCOc1ccc(C(=O)NC2(c3nc(C(C)C)no3)CCCCC2)cc1OCC	1060
O=C(Cn1c(=O)oc2ccccc21)Nc1nc(-c2ccccc2)cs1	912
c1ccc(CNc2c(-c3ccc4c(c3)OCCO4)nc3ncccn23)cc1	710

Compound	RP-LC retention time [s]
COc1ccccc1-c1noc(C2CCCN2C(=O)c2ccoc2)n1 (stereo not given)	763
CCc1ccccc1NC(=O)N(C)CCc1noc(COc2ccccc2)n1	962
Cc1nc(-c2cc(S(=O)(=O)N3CCCCC3)c(C)n2C)sc1C	1140
O=C(Cn1nc2n(c1=O)CCCCC2)Nc1ccc(F)cc1	666
COC(=O)c1ccc2c(=O)n(CCc3ccccc3)c(N3CCSC3)nc2c1	1110
O=C(c1cn2nc(Cl)ccc2n1)N(Cc1ccccc1)Cc1ccco1	974
CCN1CCN(C(=O)C2CCCN(c3nc4ccccc4n(Cc4ccccc4)c3=O)C2)CC1 (stereo not given)	706
Cc1ccc(-c2cc(C(=O)NCCc3sccc3C)c(C)[nH]2)cc1C	1040
CCCN1C(=O)c2c(C(=O)NCc3ccccc3F)ncn2CC1(C)C(=O)NCCC(C)C (stereo not given)	836
CCCc1ccc(S(=O)(=O)N2CCc3c(c(-c4nnc(-c5ccc(C)cc5)o4)nn3C)C2)cc1	1160
O=C(CCc1nc(N2CCCCC2)c2c(-c3ccc(F)cc3)noc2n1)N1CCOCC1	902
Cc1ccc(S(=O)(=O)N2CCC(C(=O)NC(C)C(=O)N3CCCc4ccccc43)CC2)cc1 (stereo not given)	902
CC(C)c1ccc(C(=O)Nc2nc3ccccc3[nH]2)cc1	672
CCOc1ccc(N2CC(c3nc(-c4ccncc4)no3)CC2=O)cc1 (stereo not given)	736
CCN1C(=O)C(C)(C(=O)Nc2cc(C)cc(C)c2)Oc2cccnc21 (stereo not given)	982
CSc1cccc(NC(=O)Nc2ccccc2C(N)=O)c1	856
COc1cccc(CNC(=O)Cn2c(N3CCCC3)nc(C)cc2=O)c1	770
COc1cccc(NC(=O)Cn2c(=O)c3cc(C4CC4)nn3c3ncccc32)c1	763
CC(C)n1c(=O)c(NCCc2ccccc2)nc2ccncc21	672
COc1cc(OC)cc(-c2nnc(Cc3nc(-c4ccc(Cl)cc4)no3)o2)c1	1110
COc1cc(NC(=O)Cn2nc(N(C)C)c3ccccc3c2=O)cc(OC)c1	836
COc1ccc2c(c1)c(CN1CCC(C(=O)NCCN3CCOCC3)CC1)cn2C	553

From the METLIN SMRT retention time set (Domingo-Almenara et al. 2019)
